Measurements: patent US12590099B2, “Inhibitors of histone deacetylase useful for the treatment or prevention of HIV infection” (Merck Sharp & Dohme LLC, priority 2018, dated 2026)

Key:
Format in all cases: biochemical
[1] = target: T1, HDAC6 (Homo sapiens, UniProt Q9UBN7); experiment: Human HDAC enzyme inhibitor Fluor-de-Lys assay, HDAC6
T1 sequence (Q9UBN7 1-1215): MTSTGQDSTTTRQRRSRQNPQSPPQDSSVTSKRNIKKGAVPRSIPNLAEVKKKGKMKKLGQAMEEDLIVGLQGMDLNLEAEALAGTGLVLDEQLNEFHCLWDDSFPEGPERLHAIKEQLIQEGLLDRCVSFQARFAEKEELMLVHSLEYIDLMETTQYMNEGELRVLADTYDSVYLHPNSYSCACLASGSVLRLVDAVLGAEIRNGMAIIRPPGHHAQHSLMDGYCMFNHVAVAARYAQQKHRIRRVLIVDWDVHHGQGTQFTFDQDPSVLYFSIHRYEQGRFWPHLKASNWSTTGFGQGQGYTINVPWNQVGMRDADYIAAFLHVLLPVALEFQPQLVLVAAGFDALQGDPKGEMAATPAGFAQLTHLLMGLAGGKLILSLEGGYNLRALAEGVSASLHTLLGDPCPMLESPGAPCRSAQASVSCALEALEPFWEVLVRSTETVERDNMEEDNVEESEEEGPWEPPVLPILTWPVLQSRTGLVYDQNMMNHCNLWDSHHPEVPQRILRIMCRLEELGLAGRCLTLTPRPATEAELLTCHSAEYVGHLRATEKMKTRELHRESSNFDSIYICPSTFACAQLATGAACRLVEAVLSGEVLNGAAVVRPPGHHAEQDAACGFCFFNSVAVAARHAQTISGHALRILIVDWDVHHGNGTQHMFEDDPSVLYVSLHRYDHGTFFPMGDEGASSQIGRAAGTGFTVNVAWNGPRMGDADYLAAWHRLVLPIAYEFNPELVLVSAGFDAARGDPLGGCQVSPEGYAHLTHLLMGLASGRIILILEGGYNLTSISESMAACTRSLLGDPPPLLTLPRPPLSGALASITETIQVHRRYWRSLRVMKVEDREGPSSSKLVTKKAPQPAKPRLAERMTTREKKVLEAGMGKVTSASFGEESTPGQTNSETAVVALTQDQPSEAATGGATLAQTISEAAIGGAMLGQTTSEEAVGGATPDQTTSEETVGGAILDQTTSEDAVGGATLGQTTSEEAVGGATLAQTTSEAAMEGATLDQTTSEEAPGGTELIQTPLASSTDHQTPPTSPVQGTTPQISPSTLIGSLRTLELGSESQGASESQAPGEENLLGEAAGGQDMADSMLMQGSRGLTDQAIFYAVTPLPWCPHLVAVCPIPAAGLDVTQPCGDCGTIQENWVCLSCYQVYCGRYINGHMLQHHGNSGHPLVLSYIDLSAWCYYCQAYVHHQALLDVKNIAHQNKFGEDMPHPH

[2] = target: T2, Recombinant human HDAC3/SMRT heterodimer (Homo sapiens, UniProt O15379); experiment: Human HDAC enzyme inhibitor Fluor-de-Lys assay, HDAC3/SMRT
T2 construct: FLAG (C); made in house
T2 sequence (O15379 whole entry): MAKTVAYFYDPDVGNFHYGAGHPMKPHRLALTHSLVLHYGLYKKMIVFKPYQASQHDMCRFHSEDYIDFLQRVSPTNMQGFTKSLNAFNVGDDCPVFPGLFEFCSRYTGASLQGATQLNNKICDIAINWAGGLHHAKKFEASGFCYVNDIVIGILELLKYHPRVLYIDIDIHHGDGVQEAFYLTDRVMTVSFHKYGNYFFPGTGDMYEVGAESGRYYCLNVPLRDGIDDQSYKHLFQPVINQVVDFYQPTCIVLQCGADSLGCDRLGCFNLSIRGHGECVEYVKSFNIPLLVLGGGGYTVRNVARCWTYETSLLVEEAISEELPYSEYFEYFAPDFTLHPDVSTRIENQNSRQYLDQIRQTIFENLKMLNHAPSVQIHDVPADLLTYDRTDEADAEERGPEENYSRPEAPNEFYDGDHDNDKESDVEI
T2 sequence (Q9Y618 1-899 partner limits assumed): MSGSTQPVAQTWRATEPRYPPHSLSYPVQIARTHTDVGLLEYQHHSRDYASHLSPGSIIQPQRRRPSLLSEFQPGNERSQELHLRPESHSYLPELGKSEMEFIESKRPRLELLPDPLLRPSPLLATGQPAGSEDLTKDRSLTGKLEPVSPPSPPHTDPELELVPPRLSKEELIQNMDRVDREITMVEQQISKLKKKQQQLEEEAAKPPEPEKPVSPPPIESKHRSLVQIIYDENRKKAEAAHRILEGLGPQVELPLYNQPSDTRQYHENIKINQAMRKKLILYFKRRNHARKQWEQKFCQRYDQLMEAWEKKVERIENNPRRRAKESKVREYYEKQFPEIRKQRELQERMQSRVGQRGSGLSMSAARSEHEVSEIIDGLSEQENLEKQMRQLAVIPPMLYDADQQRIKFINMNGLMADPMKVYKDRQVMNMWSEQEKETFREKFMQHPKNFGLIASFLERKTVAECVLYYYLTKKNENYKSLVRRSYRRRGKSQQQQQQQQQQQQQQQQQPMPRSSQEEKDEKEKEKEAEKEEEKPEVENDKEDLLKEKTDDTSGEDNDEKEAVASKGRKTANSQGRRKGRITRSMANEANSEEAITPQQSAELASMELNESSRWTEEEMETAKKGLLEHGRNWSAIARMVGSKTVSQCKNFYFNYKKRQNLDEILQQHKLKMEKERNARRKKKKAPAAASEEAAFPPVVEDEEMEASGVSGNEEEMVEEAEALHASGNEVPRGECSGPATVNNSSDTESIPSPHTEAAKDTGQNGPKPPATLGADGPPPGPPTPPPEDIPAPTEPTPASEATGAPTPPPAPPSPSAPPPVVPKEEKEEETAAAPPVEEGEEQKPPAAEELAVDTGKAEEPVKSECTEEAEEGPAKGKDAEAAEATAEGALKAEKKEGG

[3] = target: T3, Recombinant human HDAC1 (Homo sapiens, UniProt Q13547); experiment: Human HDAC enzyme inhibitor Fluor-de-Lys assay, HDAC1
T3 construct: FLAG (C); made in house
T3 sequence (Q13547 whole entry): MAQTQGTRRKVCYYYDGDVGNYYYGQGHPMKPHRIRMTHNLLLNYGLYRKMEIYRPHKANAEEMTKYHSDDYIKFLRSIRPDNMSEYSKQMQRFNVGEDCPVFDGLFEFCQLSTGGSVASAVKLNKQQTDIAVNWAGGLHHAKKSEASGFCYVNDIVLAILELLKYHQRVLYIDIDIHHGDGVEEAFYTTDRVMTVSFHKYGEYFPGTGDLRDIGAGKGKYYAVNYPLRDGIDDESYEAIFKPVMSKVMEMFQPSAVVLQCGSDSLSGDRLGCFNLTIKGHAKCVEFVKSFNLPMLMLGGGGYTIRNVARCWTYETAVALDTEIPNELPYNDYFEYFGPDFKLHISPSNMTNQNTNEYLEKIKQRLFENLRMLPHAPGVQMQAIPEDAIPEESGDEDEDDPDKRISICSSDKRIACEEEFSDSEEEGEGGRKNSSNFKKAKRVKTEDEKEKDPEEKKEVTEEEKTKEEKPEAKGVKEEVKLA
Protocol: Human HDAC Enzyme Inhibitor Fluor-De-Lys Assay
Recombinant human HDAC8 (BML-SE145-0100) and HDAC10 (BML-SE559-0050) enzymes, HDAC substrates BML-KI104 and BML-KI178, and HDAC developer solutions BML-KI105 and BML-KI176 were purchased from Enzo Life Sciences. […] HDAC inhibitor suberoylanilide hydroxamic acid (SAHA) was obtained from Indofine and trichostatin A (TSA) was obtained from Sigma-Aldrich.
Recombinant human HDAC1, HDAC2, and HDAC3/SMRT heterodimer were prepared by Merck Research Laboratories. […] The eluted protein was then passed over an anti-HDAC1 immunoaffinity column to remove any complexes containing HDAC1. […]
The histone deacetylase activities of HDAC1, HDAC2, HDAC3, HDAC6, and HDAC8 were measured in modified FLUOR DE LYS assays in 384-well format. In this assay, HDAC enzymes are initially incubated with an ε-acetyl (or -trifluoroacetyl)-L-lysine-containing substrate with a C-terminal amide having aminomethylcoumarin as the amine component. HDACs cleave the ε-acetyl group, rendering the resulting product susceptible to AMC cleavage by trypsin. The released AMC is then detected by its fluorescence.
The HDAC3/SMRT assay employed buffer B, consisting of 20 mM HEPES, pH 8.0, 1 mM MgCl2, 50 mM NaCl, 2.7 mM KCl, 0.05% BSA, 0.005% Tween 20, and 10 μM IP4. […] The HDAC8 assay employed buffer D, consisting of 20 mM HEPES, pH 8.0, 1 mM MgCl2, 100 mM NaCl, 20 mM KCl, 0.10% n-octyl-β-D-glucoside (Anatrace) and 0.05% BSA. All steps were performed at room temperature (23° C.). The assay was performed by pre-incubating serial dilutions of test compounds with the target HDAC prior to initiation with substrate. Each compound was titrated in a 10-point dose response, using a 1:3 fold dilution scheme, with 0.15 ul of solution added by ECH0555 to the plate, followed by the addition of 20 μl of the appropriate HDAC isoform diluted in appropriate assay buffer. […] Final conditions used for each assay were: 1. HDAC 1, 0.3 nM total enzyme, 20 μM substrate BML-KI104; 2. […] HDAC 3/SMRT, 0.3 nM total enzyme, 20 μM substrate BML-KI104; 4. […] The reactions were stopped and developed by addition of 30 ul of HDAC developer solution containing a saturating level of HDAC inhibitor as follows: 1.

Structure (SMILES)	IC50 [1] [nM]	IC50 [2] [nM]	IC50 [3] [nM]
CCC(=O)CCCCC[C@H](NC(=O)[C@H]1CC[C@]2(CC1)OC(=O)c1ncccc12)c1ncc(-c2ccc3nc(C4CC4)ccc3c2)o1 [Compound 122]	> 45000	20.5	56.7
CCN1CCC2(CC1)C[C@@H]2C(=O)N[C@@H](CCCCCC(=O)CC1CC1)c1ncc(-c2ccc(F)cc2)[nH]1 [Compound 201]	35800	8.06	7.18
CCC(=O)CCCCC[C@H](NC(=O)[C@H]1CC12CCN(C(C)C)CC2)c1ncc(-c2ccc3nc(C4CC4)ccc3c2)o1 [Compound 116]	4730	3.88	4.37
CCC(=O)CCCCC[C@H](NC(=O)[C@H]1CC12CCN(CC)CC2)c1ncc(-c2ccc(-c3cnc(C4CC4)nc3)cc2)o1 [Compound 161]	11700	33	54.5
CCC(=O)CCCCC[C@H](NC(=O)C1=NOC2(CCN(CC)CC2)C1)c1ncc(-c2cc3ccc(C)nc3cc2OC)[nH]1 [Compound 207]	1350	0.36	0.24
CCC(=O)CCCCC[C@H](NC(=O)[C@H]1CC12CCN(C)CC2)c1ncc(-c2ccc3c(=O)n(C)ccc3c2)o1 [Compound 137]	2760	4.72	7.78
CCC(=O)CCCCC[C@H](NC(=O)[C@H]1CC12CCN(CC)CC2)c1ncc(-c2ccc3c(=O)n(C4CC4)ccc3c2)[nH]1 [Compound 150]	7050	0.25	0.19
CCC(=O)CCCCC[C@H](NC(=O)C1CC12CC1CCC(C2)N1C)c1ncc(-c2ccc3ncccc3c2)[nH]1 (single isomer, unassigned) [Compound 166]	229	0.32	0.37
CCC(=O)CCCCC[C@H](NC(=O)[C@H]1CC12CCN(CC1CC1)CC2)c1ncc(-c2cc3ccc(=O)n(C)c3cc2OC)o1 [Compound 199]	216		0.35
CCC(=O)CCCCC[C@H](NC(=O)[C@H]1CC12CCN(C)CC2)c1ncc(-c2ccc3nc(N(C)C)ccc3c2)[nH]1 [Compound 66, (1S)—N-[(1S)-1-{5-[2-(dimethylamino)quinolin-6-yl]-1H-imidazol-2-yl}-7-oxononyl]-6-methyl-6-azaspiro[2.5]octane-1-carboxamide]	> 450	167	147
CCC(=O)CCCCC[C@H](NC(=O)[C@H]1CC12CCN(C)CC2)c1ncc(-c2cc(OC)ncc2F)o1 [Compound 220]	> 900	33.5	29.9
CN1CCC2(CC1)C[C@@H]2C(=O)N[C@@H](CCCCCC(=O)CC(F)(F)F)c1ncc(-c2ccc(F)cc2)[nH]1 [Compound 68]	6810	8.59	8.74
CCC(=O)CCCCC[C@H](NC(=O)[C@H]1CC12CCN(C)CC2)c1ncc(-c2ccc(-c3ccc(C4CC4)nc3)cc2)o1 [Compound 143]	3660	32	65.1
CCC(=O)CCCCC[C@H](NC(=O)[C@H]1CC12CCN(CC)CC2)c1nc(-c2cc3ccc(C)nc3cc2OC)cn1COC(=O)C(C)(C)C [Compound 215, {2-[(1S)-1-({[(1S)-6-ethyl-6-azaspiro[2.5]oct-1-yl]carbonyl}amino)-7-oxononyl]-4-(7-methoxy-2-methylquinolin-6-yl)-1H-imidazol-1-yl}methyl 2,2-dimethylpropanoate]	> 900	1.15	0.89
CCN1CCC2(CC1)C[C@@H]2C(=O)N[C@@H](CCCCCC(=O)CC1CC1)c1ncc(-c2cc3ccc(C)nc3cc2OC)o1 [Compound 167]	3320	1.12	0.97
CCC(=O)CCCCC[C@H](N)c1ncc(-c2cc3ccc(C)nc3cc2OC)[nH]1 [Compound 209, (S)-9-amino-9-(5-(7-methoxy-2-methylquinolin-6-yl)-1H-imidazol-2-yl)nonan-3-one]	> 900	21.6	52.9
CCC(=O)CCCCC[C@H](NC(=O)C1(C)CC12CCN(C(C)C)CC2)c1ncc(-c2ccc3nc(C)ccc3c2)[nH]1 (single isomer, unassigned) [Compound 152, (1S or 1R)-1-methyl-6-(1-methylethyl)-N-{(1S)-1-[5-(2-methylquinolin-6-yl)-1H-imidazol-2-yl]-7-oxononyl}-6-azaspiro[2.5]octane-1-carboxamide]	19200	0.85	0.94
CCC(=O)CCCCC[C@H](NC(=O)[C@H]1CC12CCN(C)CC2)c1ncc(-c2ccc3c(c2)C2CCC3C2)[nH]1 (stereo partly shown) [Compound 74]	7850	3.74	8.21
CCN1CCC2(CC1)C[C@@H]2C(=O)N[C@@H](CCCCCC(=O)CC1CCC1)c1ncc(-c2cc3ccc(C)nc3cc2OC)o1 [Compound 184]	9280	18.4	9.51
CCC(=O)CCCCC[C@H](NC(=O)[C@H]1CC12CCN(C)CC2)c1ncc(-c2cc(OC)c3ccccc3n2)[nH]1 [Compound 170]	923	4.84	5.79
CCC(=O)CCCCC[C@H](NC(=O)[C@H]1CC12CCN(C)CC2)c1ncc(-c2ccc3nc(C4CC4)oc3c2)[nH]1 [Compound 160]	10400	2.75	1.89
CCC(=O)CCCCC[C@H](NC(=O)C1CC12CCN(C)C(C)(C)C2)c1ncc(-c2ccc3nc(C)ccc3c2)[nH]1 (single isomer, unassigned) [Compound 130]	2120	2.27	5.6
CCC(=O)CCCCC[C@H](NC(=O)[C@H]1CC12CCN(C)CC2)c1ncc(-c2cnc3cccnc3c2)[nH]1 [Compound 67]	1280		19.6
CCC(=O)CCCCC[C@H](NC(=O)C1=NOC2(CCN(C)CC2)C1)c1ncc(-c2cc3ccccc3nc2OC)[nH]1 [Compound 105]	1510		0.92
CCC(=O)CCCCC[C@H](NC(=O)[C@H]1CC12CCN(C)CC2)c1ncc(-c2cc3ccccc3nc2OC)o1 [Compound 77]	198		1.53
CCC(=O)CCCCC[C@H](NC(=O)[C@H]1CC12CCN(C)CC2)c1ncc(-c2cc3ccccc3nc2OC)o1 [Compound 125]	254		< 1.5
